In patent US9409908B2 (priority 2012, dated 2016) one finds Ki data, which are given here for 21 compounds.

Structures can show the parent of a compound that is named as a salt. Where two headings read alike, the source gives them in different places. Some results are limits rather than exact numbers.

The experiment addresses purified human Factor XIa (Homo sapiens (Human), UniProt P03951). Nature of the experiment: biochemical. Type of experiment: biochemical. As to conditions: read-out: Factor XIa Ki.

purified human Factor XIa, sequence (P03951 whole entry, looked up): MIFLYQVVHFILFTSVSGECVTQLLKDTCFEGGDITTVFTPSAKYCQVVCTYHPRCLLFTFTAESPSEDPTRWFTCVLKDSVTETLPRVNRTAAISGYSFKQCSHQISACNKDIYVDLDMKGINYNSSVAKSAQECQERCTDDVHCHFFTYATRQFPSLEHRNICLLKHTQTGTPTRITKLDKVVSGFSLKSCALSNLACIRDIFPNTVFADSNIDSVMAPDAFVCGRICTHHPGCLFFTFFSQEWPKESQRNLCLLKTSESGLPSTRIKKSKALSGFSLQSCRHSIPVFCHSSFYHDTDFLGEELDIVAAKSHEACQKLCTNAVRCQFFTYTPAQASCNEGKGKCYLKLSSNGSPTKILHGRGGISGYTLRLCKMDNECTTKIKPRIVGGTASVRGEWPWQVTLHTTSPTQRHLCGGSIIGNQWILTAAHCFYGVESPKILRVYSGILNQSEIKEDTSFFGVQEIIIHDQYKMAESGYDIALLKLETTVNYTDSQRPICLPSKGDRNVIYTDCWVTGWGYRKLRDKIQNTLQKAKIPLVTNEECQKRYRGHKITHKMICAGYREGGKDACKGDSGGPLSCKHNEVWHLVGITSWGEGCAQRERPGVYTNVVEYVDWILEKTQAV
purified human Factor XIa, sequence (P03951 whole entry partner, looked up): as the sequence (P03951 whole entry, looked up) above

A word on the Ki: it is the equilibrium dissociation constant of an inhibitor or competing ligand from its target. As to `CC1CCCC(N2CCC(c3c(F)ccc(Cl)c3F)=CC2=O)c2cc(ccn2)-c2ccc(C#N)cc2NC1=O` (stereo in doubt) [Example 23, (14R)-14-[4-(3-Chloro-2,6-difluorophenyl)-6-oxo-1,2,3,6-tetrahydropyridin-1-yl]-10-methyl-9-oxo-8,16-diazatricyclo[13.3.1.0^2,7]nonadeca-1(18),2,4,6,15(19),16-hexaene-5-carbonitrile, TFA salt], the inhibition constant (Ki) (TFA salt) is 93.2 nM.

Take `C[C@@H]1CCC[C@H](N2CCC(c3c(F)ccc(Cl)c3F)=CC2=O)c2cc(ccn2)-c2ccc(N)cc2NC1=O` [Example 12, (10R,14S)-5-Amino-14-[4-(3-chloro-2,6-difluorophenyl)-6-oxo-1,2,3,6-tetrahydropyridin-1-yl]-10-methyl-8,16-diazatricyclo[13.3.1.0^2,7]nonadeca-1(19),2,4,6,15,17-hexaen-9-one]: the inhibition constant Ki was 1.5 nM.

As for `C[C@@H]1CCC[C@H](N2CCC(c3c(F)ccc(Cl)c3F)=CC2=O)c2cc(ccn2)-c2ccc(F)cc2NC1=O` [Example 14, (10R,14S)-14-[4-(3-Chloro-2,6-difluorophenyl)-6-oxo-1,2,3,6-tetrahydropyridin-1-yl]-5-fluoro-10-methyl-8,16-diazatricyclo[13.3.1.0^2,7]nonadeca-1(19),2,4,6,15,17-hexaen-9-one, TFA salt], the Ki worked out at 34.8 nM.

Regarding `C[C@@H]1CCC[C@H](N2CCC(c3c(F)ccc(Cl)c3F)=CC2=O)c2cc(ccn2)-c2ccc(O)cc2NC1=O` [Example 18, (10R,14S)-14-[4-(3-Chloro-2,6-difluorophenyl)-6-oxo-1,2,3,6-tetrahydropyridin-1-yl]-5-hydroxy-10-methyl-8,16-diazatricyclo[13.3.1.0^2,7]nonadeca-1(19),2,4,6,15,17-hexaen-9-one, TFA salt], the inhibition constant Ki is 1.25 nM.

On to `CC(=O)c1ccc(Cl)c(F)c1C1=CC(=O)N([C@H]2CCCC(C)C(=O)Nc3cc(C(N)=O)ccc3-c3ccnc2c3)CC1` (stereo partly drawn) [Example 34, (14S)-14-[4-(6-Acetyl-3-chloro-2-fluorophenyl)-6-oxo-1,2,3,6-tetrahydropyridin-1-yl]-10-methyl-9-oxo-8,16-diazatricyclo[13.3.1.0^2,7]nonadeca-1(19),2,4,6,15,17-hexaene-5-carboxamide, TFA salt], for which the Ki amounted to 4.17 nM.

`CC1CCC[C@H](N2CCC(c3cccc(Cl)c3F)=CC2=O)c2cc(ccn2)-c2ccc(C(N)=O)cc2NC1=O` (stereo partly drawn) [Example 35, (14S)-14-[4-(3-Chloro-2-fluorophenyl)-6-oxo-1,2,3,6-tetrahydropyridin-1-yl]-10-methyl-9-oxo-8,16-diazatricyclo[13.3.1.0^2,7]nonadeca-1(19),2,4,6,15,17-hexaene-5-carboxamide, TFA salt]: the Ki stood at 104 nM.

As for `CCOC(=O)Cc1nnc(Nc2ccc3c(c2)NC(=O)[C@H](C)CCC[C@H](N2CCC(c4c(F)ccc(Cl)c4F)=CC2=O)c2cc-3ccn2)o1` [Example 42, Ethyl 2-(5-{[(10R,14S)-14-[4-(3-chloro-2,6-difluorophenyl)-6-oxo-1,2,3,6-tetrahydropyridin-1-yl]-10-methyl-9-oxo-8,16-diazatricyclo[13.3.1.0^2,7]nonadeca-1(19),2,4,6,15,17-hexaen-5-yl]amino}-1,3,4-oxadiazol-2-yl)acetate, TFA salt], the Ki turned out to be 0.45 nM.

Take `COC(=O)Nc1ccc2c(c1)NC(=O)[C@H](C)CCC[C@H](N1CCC(c3cc(Cl)ccc3OC(F)F)=CC1=O)c1cc-2ccn1` [Example 44, Methyl N-[(10R,14S)-14-{4-[5-chloro-2-(difluoromethoxy)phenyl]-6-oxo-1,2,3,6-tetrahydropyridin-1-yl}-10-methyl-9-oxo-8,16-diazatricyclo[13.3.1.0^2,7]nonadeca-1(19),2,4,6,15,17-hexaen-5-yl]carbamate, TFA salt]: the inhibitory constant (Ki) worked out at 0.13 nM.

As for `CC(=O)c1ccc(Cl)c(F)c1C1=CC(=O)N([C@H]2CCC[C@@H](C)C(=O)Nc3ccccc3-c3ccnc2c3)CC1` [Example 48, (10R,14S)-14-[4-(6-Acetyl-3-chloro-2-fluorophenyl)-6-oxo-1,2,3,6-tetrahydropyridin-1-yl]-10-methyl-8,16-diazatricyclo[13.3.1.0^2,7]nonadeca-1(19),2,4,6,15,17-hexaen-9-one, TFA salt], the Ki was determined as 4.77 nM.

For the compound `C[C@@H]1CCC[C@H](N2CCC(c3c(F)ccc(Cl)c3F)=CC2=O)c2cc(ccn2)-c2ccc(NC(=O)OCCOC(C)(C)C)cc2NC1=O` [Example 53, 2-(tert-Butoxy)ethyl N-[(10R,14S)-14-[4-(3-chloro-2,6-difluorophenyl)-6-oxo-1,2,3,6-tetrahydropyridin-1-yl]-10-methyl-9-oxo-8,16-diazatricyclo[13.3.1.0^2,7]nonadeca-1(19),2,4,6,15,17-hexaen-5-yl]carbamate, TFA salt], the Ki turned out to be 0.08 nM.

For `C[C@@H]1CCC[C@H](N2CCC(c3c(F)ccc(Cl)c3F)=CC2=O)c2cc(ccn2)-c2cc(I)c(N)cc2NC1=O` [Example 61, (10R,14S)-5-Amino-14-[4-(3-chloro-2,6-difluorophenyl)-6-oxo-1,2,3,6-tetrahydropyridin-1-yl]-4-iodo-10-methyl-8,16-diazatricyclo[13.3.1.0^2,7]nonadeca-1(19),2,4,6,15,17-hexaen-9-one, TFA salt], the Ki is 24.6 nM.

Regarding `C[C@@H]1CCC[C@H](N2CCC(c3c(C(F)(F)F)ccc(Cl)c3F)=CC2=O)c2cc(ccn2)-c2ccccc2NC1=O` [Example 67, (10R,14S)-14-{4-[3-Chloro-2-fluoro-6-(trifluoromethyl)phenyl]-6-oxo-1,2,3,6-tetrahydropyridin-1-yl}-10-methyl-8,16-diazatricyclo[13.3.1.0^2,7]nonadeca-1(19),2(7),3,5,15,17-hexaen-9-one, TFA salt], the inhibitory constant (Ki) is 2.98 nM.

Consider `C[C@@H]1CCC[C@H](N2CCC(c3c(-n4cnnn4)ccc(Cl)c3F)=CC2=O)c2cc(ccn2)-c2ccccc2NC1=O` [Example 68, (10R,14S)-14-{4-[3-Chloro-2-fluoro-6-(1H-1,2,3,4-tetrazol-1-yl)phenyl]-6-oxo-1,2,3,6-tetrahydropyridin-1-yl}-10-methyl-8,16-diazatricyclo[13.3.1.0^2,7]nonadeca-1(19),2(7),3,5,15,17-hexaen-9-one, TFA salt], for which the Ki came to 0.05 nM.

As to `CC(=O)Nc1ccc2c(c1)NC(=O)[C@H](C)CCC[C@H](N1CCC(c3c(F)ccc(Cl)c3F)=CC1=O)c1cc-2ccn1` [Example 75, N-[(10R,14S)-14-[4-(3-Chloro-2,6-difluorophenyl)-6-oxo-1,2,3,6-tetrahydropyridin-1-yl]-10-methyl-9-oxo-8,16-diazatricyclo[13.3.1.0^2,7]nonadeca-1(19),2(7),3,5,15,17-hexaen-5-yl]acetamide, TFA salt], the Ki is 3.54 nM.

With `C[C@@H]1CCC[C@H](N2CCC(c3c(F)ccc(Cl)c3F)=CC2=O)c2cc(ccn2)-c2ccc(NS(C)(=O)=O)cc2NC1=O` [Example 76, N-[(10R,14S)-14-[4-(3-Chloro-2,6-difluorophenyl)-6-oxo-1,2,3,6-tetrahydropyridin-1-yl]-10-methyl-9-oxo-8,16-diazatricyclo[13.3.1.0^2,7]nonadeca-1(19),2(7),3,5,15,17-hexaen-5-yl]methanesulfonamide, TFA salt], the inhibition constant Ki was 7.89 nM.

For the compound `C[C@@H]1CCC[C@H](N2CCC(c3c(F)ccc(Cl)c3F)=CC2=O)c2cc(ccn2)-c2ccc(NC(=O)CC(=O)OC(C)(C)C)cc2NC1=O` [Example 87, tert-Butyl 2-{[(10R,14S)-14-[4-(3-chloro-2,6-difluorophenyl)-6-oxo-1,2,3,6-tetrahydropyridin-1-yl]-10-methyl-9-oxo-8,16-diazatricyclo[13.3.1.0^2,7]nonadeca-1(19),2,4,6,15,17-hexaen-5-yl]carbamoyl}acetate, TFA salt], the inhibitory constant (Ki) was 17.3 nM.

Regarding `C[C@@H]1CCC[C@H](n2ccc(-c3c(F)ccc(Cl)c3F)cc2=O)c2cc(ccn2)-c2ccc(N)cc2NC1=O` [Example 91, (10R,14S)-5-Amino-14-[4-(3-chloro-2,6-difluorophenyl)-2-oxo-1,2-dihydropyridin-1-yl]-10-methyl-8,16-diazatricyclo[13.3.1.0^2,7]nonadeca-1(19),2,4,6,15,17-hexaen-9-one, 2 TFA salt], the inhibitory constant (Ki) was determined as 0.56 nM.

For the compound `C[C@@H]1CCC[C@H](n2ccc(-c3c(F)ccc(Cl)c3F)cc2=O)c2cc(ccn2)-c2ccc(Nc3ncccn3)cc2NC1=O` [Example 92, (10R,14S)-14-[4-(3-Chloro-2,6-difluorophenyl)-2-oxo-1,2-dihydropyridin-1-yl]-10-methyl-5-[(pyrimidin-2-yl)amino]-8,16-diazatricyclo[13.3.1.0^2,7]nonadeca-1(19),2(7),3,5,15,17-hexaen-9-one, 2 TFA salt], the Ki is 0.56 nM.

Consider `COC(=O)Nc1ccc2c(c1)NC(=O)[C@H](C)CCC[C@H](N1CCC(c3cncn3C)=CC1=O)c1cc-2ccn1` [Example 97, Methyl N-[(10R,14S)-10-methyl-14-[4-(1-methyl-1H-imidazol-5-yl)-6-oxo-1,2,3,6-tetrahydropyridin-1-yl]-9-oxo-8,16-diazatricyclo[13.3.1.0^2,7]nonadeca-1(19),2,4,6,15,17-hexaen-5-yl]carbamate, 2 TFA salt], for which the Ki was above 408 nM.

Regarding `CC(C)[C@@H]1CCC[C@H](N2CCC(c3c(-n4cnnn4)ccc(Cl)c3F)=CC2=O)c2cc(ccn2)-c2ccccc2NC1=O` [Example 100, (10S,14S)-14-{4-[3-chloro-2-fluoro-6-(1H-1,2,3,4-tetrazol-1-yl)phenyl]-6-oxo-1,2,3,6-tetrahydropyridin-1-yl}-10-(propan-2-yl)-8,16-diazatricyclo[13.3.1.0^2,7]nonadeca-1(18),2,4,6,15(19),16-hexaen-9-one, TFA salt], the Ki was 0.09 nM.

As to `COC(=O)Nc1ccc2c(c1)NC(=O)[C@H](C)CCC[C@H](N1CCC(c3cncn3Cc3ccccc3)=CC1=O)c1cc-2ccn1` [Example 101, Methyl N-[(10R,14S)-14-[4-(1-benzyl-1H-imidazol-5-yl)-6-oxo-1,2,3,6-tetrahydropyridin-1-yl]-10-methyl-9-oxo-8,16-diazatricyclo[13.3.1.0^2,7]nonadeca-1(19),2,4,6,15,17-hexaen-5-yl]carbamate, bis TFA salt], the inhibition constant (Ki) was above 434 nM.
